Data: patent US20130224151A1, “Use of FAAH Inhibitors for Treating Abdominal, Visceral and Pelvic Pain” (UNITED STATES OF AMERICA, priority 2010, published 2013)
Entries after “also recorded” stand apart in the source; their conditions may differ.

Test system: Male Sprague Dawley (SD) rats
Assay: Cortagine-induced visceral hypersensitivity to colorectal distension
Assay type: in vivo, rat
From the text: Male Sprague Dawley (SD) rats (250-275 g, Harlan Labs, Indianapolis, Ind.) were kept under standard conditions of humidity and temperature and a 12-hour light/dark cycle (lights on 6.00 a.m.). Animals were group housed and had access to food ad libitum. Prior to the start of studies, animals were acclimatized to handling and administration of treatments (oral syringe feeding and subcutaneous injection). At the end of the experiments, animals were sacrificed by CO2 gas inhalation followed by thoracotomy or isoflurane anesthesia followed by decapitation with appropriate approved animal protocols.
On the day of the experiments, rats were injected intraperitoneally (IP) with cortagine (10 μg/kg, 0.8 ml/kg in DMSO/cremophor/isotonic saline (1:1:8 v:v:v). Cortagine, a selective corticotropin releasing factor receptor 1 (CRF1) agonist, prepared as described previously (Rivier et al. J. Med. Chem. 2007: 50:1668-1674), was stored in a powder form at −80° C. and prepared in sterile water (12.5 μg/ml) immediately before use. This dose had previously been established to show a significant increase in defecation, induction of diarrhea and increase in colonic motility, permeability and visceral pain in rats. (Larauche et al. Am. J. Physiol. Gastrointest. Liver Physiol. 2009: 297:G215-G227)
FAAH inhibitor compounds URB597 [3′-(aminocarbonyl)biphenyl-3-yl cyclohexyl carbamate], compound A and compound B were formulated as suspensions in DMSO/cremophor/isotonic saline (1:1:8 v:v:v). The concentration of the respective dosing FAAH inhibitor compound suspensions were 6 mg/ml for 30 mg/kg dose of compound A or compound B; 2 mg/ml for the 10 mg/kg dose of compound B; and 1.5 mg/ml for the 3 mg/kg dose of URB597. Compound A, compound B or vehicle treatment was administered to rats by per os (PO) route at dose-volume of 5 ml/kg. URB597 treatment was administered to rats by subcutaneous (SC) route at dose volume of 2 ml/kg. The vehicle for the PO route was DMSO/cremophor/isotonic saline (1:1:8 v:v:v). Vehicle (PO), URB597 (SC), compound A and compound B (PO) were administered to non-fasted rats, restrained by hand. The regimen of administration of URB597, compound A and compound B involved one delivery (PO or SC) performed 120 min before IP injection of cortagine.
Visceral pain was assessed using a non-invasive pressure transducer system referred to as “sensor balloon” as previously described (Larauche et al. Am. J. Physiol. Gastrointest. Liver Physiol. 2009: 297:G215-G227; Ness et al. Brain Res. 1988: 450:153-169). Briefly, in adult non-fasted SD rats, a 4-5 cm “sensor balloon” lubricated with surgical lubricant (Surgilube, Fougera, Melville) was inserted intra-anally under brief isoflurane anesthesia. The “sensor balloon” was positioned such that its distal end was 1 cm proximal to the anal verge and secured in place by tapping the balloon catheter to the tail. Rats were placed individually in Boolman's cage and allowed to recover from anesthesia and habituation. The colorectal procedure was performed using the Distender Series Ilir dual barostat (G&J Electronics Inc, Toronto, Ontario). The CRD protocol consisted of 2 CRD at 60 mmHg to unfold the balloon followed by 2 sets of CRD at 10, 20, 40 and 60 mmHg, 20 s duration, 4-min inter-stimulus interval. The intra-luminal colonic pressure (ICP) was recorded for 20 s before, during and after termination of CRD. […]

[1] = 3 mg/kg SC 2 h before cortagine
[2] = 3 mg/kg SC 2 h before cortagine, n=11
[3] = 3 mg/kg SC 2 h before cortagine, normalized to baseline VMR at 60 mmHg

## NC(=O)c1cccc(-c2cccc(OC(=O)NC3CCCCC3)c2)c1 [URB597, 3′-(aminocarbonyl) biphenyl-3-yl cyclohexyl carbamate, reference compound]
[1]
  % hypersensitive rats at 40 mmHg: 55%
  rats with increased VMR over baseline between 0 and 50% at 60 mmHg: 18%
  rats with increased VMR over baseline between 51 and 100% at 60 mmHg: 9%
  rats with increased VMR over baseline over 101% at 60 mmHg: 9%
3 mg/kg SC 2 h before cortagine 10 μg/kg IP, 40 and 60 mmHg
  effect on cortagine-induced visceral hypersensitivity to CRD: abolished the visceral hypersensitivity; also recorded: prevented the visceral hypersensitivity
[2]
  rats presenting a decrease in VMR compared to baseline at 60 mmHg: 64%
  rats presenting an increased VMR over baseline (% hypersensitive rats) at 60 mmHg: 36%
[3]
  VMR to CRD at 40 mmHg: 81.89±16.38%
  VMR to CRD at 60 mmHg: 97.62±20.02%
Second trial, URB597 3 mg/kg SC 2 h before cortagine IP, n=7, p<0.001
  VMR versus vehicle/cortagine rats at 60 mmHg CRD: significant differences
Summary statement referring to Example 3
  antihyperalgesic effects in the cortagine model of visceral pain: did exhibit antihyperalgesic effects
